Values quoted from earlier work as cited in patent US8361760B2, “Microbial production of 3-hydroxyacids from glucose and glycolate” (Massachusetts Institute of Technology, priority 2009, dated 2013).

System: CoA-transferase
Set-up: Relative activity: concentration or dose not given beside the values
Settings: CoA-transferase activity with carboxylic acid added; for Relative activity: relative to None = 100; for Specific Activity: None = 34.1 units/mg

SMILES	Relative activity [%]	Specific Activity [units/mg]
O=C(O)CCC(=O)O [Succinate]	87	29.6
C=CC(=O)O [Acrylate]	37	12.7
C[C@@H](O)C(=O)O [(R)-Lactate]	27	9.1
CCC(=O)O [Propionate]	20	6.8
O=C(O)/C=C/C(=O)O [Fumarate]	96	32.8
C[C@H](O)C(=O)O [(S)-Lactate]	46	15.8
O=C(O)CC[C@@H](O)C(=O)O [(R)-2-Hydroxyglutarate]	87	29.6
O=C(O)/C=C/CC(=O)O [(E)-Glutaconate]	94	32.1
